In DBAASP:
≈ marks a conversion by molar mass, not a printed value.

Tests used:
Assay in all cases: ≥ marks a high value that may be exact or a test limit, other limits are often not marked, values filed in µg/mL are converted to µM
[1] = system: Bacillus subtilis ATCC 6633
[2] = system: Escherichia coli ATCC 25922
[3] = system: Klebsiella pneumoniae ATCC 10031
[4] = system: Micrococcus luteus ATCC 10240
[5] = system: Pseudomonas aeruginosa ATCC 27853
[6] = system: Salmonella enterica subsp. enterica serovar Typhimurium ATCC 14028
[7] = system: Shigella dysenteriae ATCC 9752
[8] = system: Staphylococcus aureus ATCC 6538P
[9] = system: Staphylococcus epidermidis ATCC 12228
[10] = system: Pseudomonas aeruginosa Ps4
[11] = system: Candida albicans ATCC 90028
[12] = system: Escherichia coli ATCC 8739
[13] = system: Staphylococcus aureus ATCC 43300
[14] = system: Staphylococcus aureus ATCC 6538
Streptococcus mutans = system: Streptococcus mutans
[15] = system: Staphylococcus aureus ATCC 25923

## CC(C)C[C@H](NC(=O)[C@H](Cc1c[nH]c2ccccc12)NC(=O)[C@H](CCCCN)NC(=O)[C@H](Cc1ccccc1)NC(=O)[C@H](CC(C)C)NC(=O)[C@H](Cc1c[nH]c2ccccc12)NC(=O)[C@H](CCCCN)NC(=O)[C@H](CC(C)C)NC(=O)[C@@H](N)Cc1ccccc1)C(=O)N[C@@H](CCCCN)C(=O)N[C@@H](CCCCN)C(N)=O [FLKWLFKWLKK]
[1]
  MIC: 4.1 µM (≈ 6.3 µg/mL)
[2]
  MIC: 32.5 µM (≈ 50 µg/mL)
[3]
  MIC: ≥ 32.5 µM
[4]
  MIC: 2.02 µM (≈ 3.1 µg/mL)
[5]
  MIC: 16.3 µM (≈ 25 µg/mL)
[6]
  MIC: 130 µM (≈ 200 µg/mL)
[7]
  MIC: 16.3 µM (≈ 25 µg/mL)
[8]
  MIC: 8.13 µM (≈ 12.5 µg/mL)
[9]
  MIC: 8.13 µM (≈ 12.5 µg/mL)

## CC(C)C[C@H](NC(=O)[C@H](Cc1c[nH]c2ccccc12)NC(=O)[C@H](Cc1c[nH]c2ccccc12)NC(=O)[C@H](CC(C)C)NC(=O)[C@@H](N)Cc1ccccc1)C(=O)N[C@@H](Cc1ccccc1)C(=O)N[C@@H](CCCCN)C(=O)N[C@@H](Cc1c[nH]c2ccccc12)C(=O)N[C@@H](C)C(=O)N[C@@H](Cc1c[nH]c2ccccc12)C(=O)N[C@@H](CCCCN)C(N)=O [FLWWLFKWAWK]
[1]
  MIC: 1.92 µM (≈ 3.1 µg/mL)
[2]
  MIC: > 124 µM
[3]
  MIC: ≥ 124 µM
[4]
  MIC: 1.92 µM (≈ 3.1 µg/mL)
[5]
  MIC: > 124 µM
[6]
  MIC: > 124 µM
[7]
  MIC: ≥ 124 µM
[8]
  MIC: 3.91 µM (≈ 6.3 µg/mL)
[9]
  MIC: 1.92 µM (≈ 3.1 µg/mL)

## CC[C@H](C)[C@H](NC(=O)[C@H](CCCN=C(N)N)NC(=O)[C@@H](NC(=O)[C@H](CC(N)=O)NC(=O)[C@H](CCCN=C(N)N)NC(=O)[C@H](CCC(N)=O)NC(=O)[C@H](Cc1c[nH]c2ccccc12)NC(=O)[C@H](CCC(N)=O)NC(=O)[C@@H](N)Cc1ccccc1)[C@@H](C)CC)C(=O)N[C@@H](CCCN=C(N)N)C(=O)N[C@@H](CCCN=C(N)N)C(N)=O [FQWQRNIRIRR]
[10]
  MIC: ≥ 159 µM

## CC[C@H](C)[C@H](NC(=O)[C@H](CC(N)=O)NC(=O)[C@H](CCCN=C(N)N)NC(=O)[C@H](CCC(N)=O)NC(=O)[C@H](Cc1c[nH]c2ccccc12)NC(=O)[C@@H](N)Cc1ccccc1)C(=O)N[C@@H](CCCN=C(N)N)C(=O)N[C@@H](CCCCN)C(=O)N[C@H](C(=O)N[C@@H](CCCN=C(N)N)C(=O)N[C@@H](CCCN=C(N)N)C(=O)N[C@@H](CCCN=C(N)N)C(N)=O)C(C)C [FWQRNIRKVRRR]
[10]
  MIC: ≥ 146 µM

## CC[C@H](C)[C@H](NC(=O)[C@H](CC(N)=O)NC(=O)[C@H](CCCN=C(N)N)NC(=O)[C@H](CCC(N)=O)NC(=O)[C@H](Cc1c[nH]c2ccccc12)NC(=O)[C@@H](N)Cc1ccccc1)C(=O)N[C@@H](CCCN=C(N)N)C(=O)N[C@@H](CCCCN)C(=O)N[C@H](C(=O)N[C@@H](CCCN=C(N)N)C(=O)N[C@@H](CCCN=C(N)N)C(N)=O)C(C)C [FWQRNIRKVRR]
[10]
  MIC: ≥ 160 µM

## CC[C@H](C)[C@H](NC(=O)[C@H](CC(N)=O)NC(=O)[C@H](CCCN=C(N)N)NC(=O)[C@H](CCC(N)=O)NC(=O)[C@H](Cc1c[nH]c2ccccc12)NC(=O)[C@@H](N)Cc1ccccc1)C(=O)N[C@@H](Cc1ccc(O)cc1)C(=O)N[C@@H](CCCCN)C(=O)N[C@H](C(=O)N[C@@H](CCCN=C(N)N)C(N)=O)C(C)C [FWQRNIYKVR]
[10]
  MIC: ≥ 177 µM

## CC(C)[C@H](NC(=O)[C@H](CCCCN)NC(=O)[C@H](CCCN=C(N)N)NC(=O)[C@H](Cc1c[nH]c2ccccc12)NC(=O)[C@H](CC(N)=O)NC(=O)[C@H](CCCN=C(N)N)NC(=O)[C@H](CCC(N)=O)NC(=O)[C@H](Cc1c[nH]c2ccccc12)NC(=O)[C@@H](N)Cc1ccccc1)C(=O)N[C@@H](CCCN=C(N)N)C(N)=O [FWQRNWRKVR]
[10]
  MIC: ≥ 169 µM

## CC[C@H](C)[C@H](NC(=O)[C@H](CCCCN)NC(=O)[C@@H](NC(=O)[C@H](CO)NC(=O)[C@H](CC(=O)O)NC(=O)[C@H](Cc1c[nH]c2ccccc12)NC(=O)[C@H](CC(C)C)NC(=O)CN)[C@@H](C)CC)C(=O)N[C@@H](C)C(=O)NCC(=O)N[C@@H](CCCCN)C(=O)N[C@@H](CCCCN)C(=O)N[C@@H](CC(C)C)C(=O)N[C@@H](Cc1ccccc1)C(=O)N[C@H](C(=O)N[C@@H](CC(N)=O)C(=O)N[C@H](C(=O)N[C@@H](CC(C)C)C(=O)N[C@@H](CC(=O)O)C(=O)N[C@@H](CCCCN)C(=O)N[C@H](C(=O)N[C@@H](CCCN=C(N)N)C(=O)N[C@H]1CSSC[C@@H](C(=O)O)NC(=O)CNC(=O)CNC(=O)[C@H](C)NC(=O)[C@H](C(C)C)NC(=O)[C@H](CCCCN)NC1=O)[C@@H](C)CC)C(C)C)C(C)C [GLWDSIKIAGKKLFVNVLDKIRCKVAGGC]
[11]
  MIC: ≥ 100 µM
[12]
  MIC: 12.5 µM (≈ 39.1 µg/mL)
[13]
  MIC: 12.5 µM (≈ 39.1 µg/mL)
[14]
  MIC: 3.1 µM (≈ 9.71 µg/mL)

## CC(C)C[C@H](NC(=O)[C@H](CC(C)C)NC(=O)[C@H](CCCCN)NC(=O)[C@H](CC(C)C)NC(=O)[C@H](CC(C)C)NC(=O)[C@H](Cc1c[nH]c2ccccc12)NC(=O)[C@H](CCCCN)NC(=O)[C@H](CC(C)C)NC(=O)[C@H](CC(C)C)NC(=O)[C@H](CCCCN)NC(=O)[C@H](CCCCN)NC(=O)[C@@H](N)CC(C)C)C(=O)N[C@@H](CCCCN)C(N)=O [LKKLLKWLLKLLK]
[1]
  MIC: 1.89 µM (≈ 3.1 µg/mL)
[2]
  MIC: > 122 µM
[3]
  MIC: ≥ 122 µM
[4]
  MIC: 1.89 µM (≈ 3.1 µg/mL)
[5]
  MIC: > 122 µM
[6]
  MIC: > 122 µM
[7]
  MIC: ≥ 122 µM
[8]
  MIC: 7.63 µM (≈ 12.5 µg/mL)
[9]
  MIC: 7.63 µM (≈ 12.5 µg/mL)

## CC(C)C[C@H](NC(=O)[C@H](CC(C)C)NC(=O)[C@H](CCCCN)NC(=O)[C@H](CC(C)C)NC(=O)[C@H](CC(C)C)NC(=O)[C@H](CCCCN)NC(=O)[C@H](CCCCN)NC(=O)[C@H](CC(C)C)NC(=O)[C@H](CC(C)C)NC(=O)[C@H](CCCCN)NC(=O)[C@@H](N)CC(C)C)C(=O)N[C@@H](CCCCN)C(=O)N[C@@H](CCCCN)C(=O)N[C@@H](Cc1ccccc1)C(N)=O [LKLLKKLLKLLKKF]
Streptococcus mutans
  MIC: 4.63 µM (≈ 8 µg/mL)

## CSCC[C@H](N)C(=O)N[C@@H](C)C(=O)N[C@@H](CCCN=C(N)N)C(=O)N[C@@H](CC(N)=O)C(=O)N[C@@H](CCCCN)C(=O)N1CCC[C@H]1C(=O)N[C@@H](CC(C)C)C(=O)NCC(=O)N[C@@H](CCCCN)C(=O)N[C@@H](CCCCN)C(=O)N[C@@H](CC(C)C)C(=O)N[C@@H](CCCN=C(N)N)C(=O)N[C@@H](CC(C)C)C(=O)N[C@@H](C)C(=O)N[C@@H](C)C(=O)N[C@@H](C)C(=O)N[C@@H](Cc1ccccc1)C(=O)N[C@@H](CCCCN)C(=O)O [MARNKPLGKKLRLAAAFK]
[12]
  MIC: ≥ 127 µM
[15]
  MIC: > 127 µM

## CSCC[C@H](N)C(=O)N[C@@H](CCCCN)C(=O)N[C@@H](CCCCN)C(=O)N[C@@H](CC(C)C)C(=O)N[C@@H](Cc1ccccc1)C(=O)N[C@@H](C)C(=O)N[C@@H](C)C(=O)N[C@@H](CC(C)C)C(=O)N[C@@H](C)C(=O)N[C@@H](CC(C)C)C(=O)N[C@@H](C)C(=O)N[C@@H](C)C(=O)N[C@H](C(=O)N[C@H](C(=O)N[C@@H](C)C(=O)N1CCC[C@H]1C(=O)N[C@H](C(=O)N[C@@H](Cc1c[nH]c2ccccc12)C(=O)O)C(C)C)C(C)C)C(C)C [MKKLFAALALAAVVAPVW]
[12]
  MIC: ≥ 135 µM
[15]
  MIC: > 135 µM

## CC(C)C[C@H](NC(=O)[C@H](CCCCN)NC(=O)[C@H](CCCCN)NC(=O)[C@H](CCCN=C(N)N)NC(=O)[C@H](CCCN=C(N)N)NC(=O)[C@H](CO)NC(=O)[C@H](CCC(N)=O)NC(=O)[C@H](Cc1ccc(O)cc1)NC(=O)[C@H](Cc1ccccc1)NC(=O)[C@H](CCC(N)=O)NC(=O)[C@H](CO)NC(=O)[C@H](CCC(=O)O)NC(=O)[C@H](CCCN=C(N)N)NC(=O)[C@@H](N)CC(N)=O)C(=O)N[C@@H](CO)C(=O)N[C@@H](CO)C(=O)N[C@@H](CCC(N)=O)C(=O)N[C@H](C(=O)O)C(C)C [NRESQFYQSRRKKLSSQV]
[12]
  MIC: ≥ 114 µM
[15]
  MIC: > 114 µM

## NC(N)=NCCC[C@H](NC(=O)[C@H](Cc1c[nH]c2ccccc12)NC(=O)[C@H](Cc1c[nH]c2ccccc12)NC(=O)[C@H](Cc1ccccc1)NC(=O)[C@H](CCCN=C(N)N)NC(=O)[C@H](CCCN=C(N)N)NC(=O)[C@@H](N)CCCN=C(N)N)C(=O)O [RRRFWWR]
Streptococcus mutans
  MIC: ≥ 53.8 µM

## NC(N)=NCCC[C@H](NC(=O)[C@H](CCCN=C(N)N)NC(=O)[C@H](Cc1c[nH]c2ccccc12)NC(=O)[C@H](Cc1c[nH]c2ccccc12)NC(=O)[C@H](CCCN=C(N)N)NC(=O)[C@@H](N)CCCN=C(N)N)C(=O)N[C@@H](Cc1c[nH]c2ccccc12)C(=O)O [RRWWRRW]
Streptococcus mutans
  MIC: 13.3 µM (≈ 16 µg/mL)

## CC(C)C[C@H](NC(=O)[C@H](Cc1cnc[nH]1)NC(=O)[C@H](CCC(N)=O)NC(=O)[C@H](Cc1c[nH]c2ccccc12)NC(=O)[C@@H](NC(=O)[C@H](CCC(N)=O)NC(=O)[C@H](Cc1ccccc1)NC(=O)[C@H](CC(C)C)NC(=O)[C@@H](N)Cc1ccc(O)cc1)[C@@H](C)O)C(=O)N[C@@H](Cc1ccccc1)C(=O)N[C@@H](CCCN=C(N)N)C(=O)O [YLFQTWQHLFR]
Streptococcus mutans
  MIC: ≥ 81.2 µM
